# Patent publication US6660767B2, “Coumarin compounds as microtubule stabilizing agents and therapeutic uses thereof” (The Regents of the University of California, priority 2001, dated 2003)
# Entries after “also recorded” stand apart in the source; their conditions may differ. Where two headings read alike, the source gives them in different places.
# Key:
# [1] = test system: S. purpuratus embryos; test: Inhibition of first cleavage (cell division) of sea urchin embryos; format: cell-based, Strongylocentrotus purpuratus; details: for inhibition of the first cleavage of S. purpuratus embryos: FIGS. 1-4; for IC50: Strongylocentrotus purpuratus, read-out: concentration required for half maximal inhibition of first cleavage
# Experimental: (§1) Male and female Strongylocentrotus purpuratus or S. franciscanus were injected with 0.5 M KCl through the soft tissue of the oral surface into the coleomic cavity and were then cultured in filtered seawater by conventional methods in the art. See e.g. O'Brien, E. T., et al. (1989) Mol. Pharmacol. 35:635-642; and Jacobs, J. S. and L. Wilson (1986) Drugs Pharm. Sci. 27:481-493, which are herein incorporated by reference. Gametes were released into filtered seawater. The eggs were stirred and passed 3 times through a […] Nitex mesh (Tetko, Inc., Elmsford, N.Y.) to remove the jelly coating and then allowed to settle. The seawater was aspirated off and then the eggs were centrifuged for 4 minutes at 310 rpm. The eggs were resuspended at 1% (v/v) in filtered seawater and set aside. Fresh sperm were collected from the aboral surface of a male urchin. About 1 drop of concentrated sperm was collected into a test tube and 1 ml of seawater was added. A 1 ml aliquot of the sperm solution was added per 100 ml of suspended eggs and immediately mixed.
# After 1 minute post-fertilization, about 1 ml of embryos were placed on a microscope slide and checked for percent fertilization under a 10× magnification with a light microscope. A visible fertilization membrane differentiates fertilized egg from the unfertilized. The fertilized embryos were then incubated with a coumarin compound no later than 5 minutes after initial fertilization. The embryos were incubated for about 2 hours at about 15° C. to about 17° C., or until the control embryos completed first division and were in the 2-cell stage. The amount of division was calculated in each test sample by counting the number of divided versus undivided embryos in a small sample of about 40 μL using the light microscope.
# (§2) Quantitation of division was performed by counting the number of divided and nondivided embryos after the control embryos had progressed to the end of first cleavage (about 120 minutes after fertilization). […]
# [2] = test system: sea urchin embryos; test: Cell cycle analysis: dicoumarol added at 10-minute intervals after fertilization; details: 50 μM dicoumarol added at 10-minute intervals; FIG. 5
# Experimental: The ability of dicoumarol to block cells in mitosis, like a mitotic spindle poison, was examined. The first mitosis typically occurs between about 70 to about 90 minutes after fertilization and cytokinesis is usually complete at about 120 minutes, giving rise to two blastomeres.
# Specifically, aliquots were designated T-10, T-20, . . . T-120.
# [3] = test system: Lytechinus pictus embryos; test: Inhibition of first cleavage of sea urchin embryos (dose-response); format: cell-based
# [4] = test system: S. franciscanus embryos; test: as above; format: cell-based
# Experimental: as §1, with “Fresh sperm were collected from the aboral surface of a male urchin. About 1 drop of concentrated sperm was collected into a test tube and 1 ml of seawater was added. A 1 ml aliquot of the sperm solution was added per 100 ml of suspended eggs and immediately mixed.” left out
# After 1 minute post-fertilization, about 1 ml of embryos were placed on a microscope slide and checked for percent fertilization under a 10× magnification with a light microscope. […] The amount of division was calculated in each test sample by counting the number of divided versus undivided embryos in a small sample of about 40 μL using the light microscope.
# as §2
# [5] = biological target: tubulin (Bos taurus, UniProt P81947+Q6B856); test: Turbidity (light scattering) polymerization assay with electron microscopy; format: biochemical, bovine
# Experimental: To determine the rate and extent of the ability of a test compound to promote or inhibit microtubule polymerization (change in turbidity) a coumarin compound is added to a cuvet comprising about 1 mg/ml microtubule protein. The cuvet is incubated at 37° C. for 45 minutes in a spectrophotometer equipped with a heating unit and the absorbance is measured at about 340 nm. The change in absorbance is measured at intervals of 45 seconds over the 45-minute period and compared to the absorbance change induced by 1 mM GTP.
# Specifically, 1.2 mg/ml of microtubule protein was mixed with different concentrations of dicoumarol in 100 mM PIPES, 1 mM MgCl2, and 1 mM EGTA (100 mM PEM buffer), and 1 mM guanosine 5′-triphosphate. Microtubule polymerization was monitored at 37° C. by light scattering at 350 nm using a Gilford Response Spectrophotometer.
# 10 μl aliquots were taken from spectrophotometrically followed reaction mixtures obtained during the course of the turbidity/light scattering assays at 10, 20, and 45 minutes and applied to 200-mesh carbon coated, Formavar-treated, copper grids (Ted Pella, Inc., Redding, Calif.). The sample was followed by several drops of 0.5% uranyl acetate and excess was drained off with filter paper. The grids were then examined with a Zeiss model 10CA electron microscope.
# [6] = test system: sea urchin embryos; test: Spindle microtubule and chromosome organization in sea urchin embryos (immunofluorescence, modified Balczon and Schatten); format: cell-based, S. franciscanas; details: 50 μM dicoumarol
# Experimental: Sea urchin embryos prepared according to Example 1 were used to study the effect of coumarin compounds on spindle microtubule organization and chromosome organization using immunofluorescence microscopy with specific antibodies for tubulin and DAPI was used to image the chromatin. Two different sea urchin embryo assay protocols were used.
# Fixation and staining of embryos for immunofluorescence microscopy were performed according to a modified method of Balczon and Schatten ((1983) Cell Motility 3:213-226, which is herein incorporated by reference). […]. After extraction for 45 minutes, the embryos were fixed for 6 minutes with −10° C. methanol. After methanol fixation, the cells were rinsed for 5 minutes in PBS and then 25 μl of anti-α-tubulin monoclonal antibody (1:100) in PBS comprising 2% bovine serum albumin was added.
# The embryos were incubated at 37° C. for about 60 to about 75 minutes and rinsed for 20 minutes in PBS after which 25 μl of a secondary staining solution comprising fluoroscein isothiocynate (FITC) conjugated to an anti-mouse IgG (1:100 in PBS) and DAPI (10 μg/ml) was added. The embryos were then incubated for 60 minutes at 37° C. and then rinsed for 20 minutes in PBS. Coverslips were mounted onto the slides with a solution of Vectashield® (Vector Laboratories, Inc., Burlingame, Calif.) and sealed with nail polish. […]
# Chain of tubulin (Q6B856 whole entry): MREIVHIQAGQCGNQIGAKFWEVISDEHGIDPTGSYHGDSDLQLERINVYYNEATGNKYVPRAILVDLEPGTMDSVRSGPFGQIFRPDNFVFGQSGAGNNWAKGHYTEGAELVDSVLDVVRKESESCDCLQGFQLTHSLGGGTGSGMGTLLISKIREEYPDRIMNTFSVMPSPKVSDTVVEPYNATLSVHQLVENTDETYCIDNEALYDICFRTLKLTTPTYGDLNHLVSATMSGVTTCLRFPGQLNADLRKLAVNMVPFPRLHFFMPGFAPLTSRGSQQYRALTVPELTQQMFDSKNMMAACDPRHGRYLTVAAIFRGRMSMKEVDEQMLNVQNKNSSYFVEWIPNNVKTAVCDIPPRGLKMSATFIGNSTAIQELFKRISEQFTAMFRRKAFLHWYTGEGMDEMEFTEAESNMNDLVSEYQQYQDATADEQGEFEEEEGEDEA
# Chain of tubulin (P81947 whole entry): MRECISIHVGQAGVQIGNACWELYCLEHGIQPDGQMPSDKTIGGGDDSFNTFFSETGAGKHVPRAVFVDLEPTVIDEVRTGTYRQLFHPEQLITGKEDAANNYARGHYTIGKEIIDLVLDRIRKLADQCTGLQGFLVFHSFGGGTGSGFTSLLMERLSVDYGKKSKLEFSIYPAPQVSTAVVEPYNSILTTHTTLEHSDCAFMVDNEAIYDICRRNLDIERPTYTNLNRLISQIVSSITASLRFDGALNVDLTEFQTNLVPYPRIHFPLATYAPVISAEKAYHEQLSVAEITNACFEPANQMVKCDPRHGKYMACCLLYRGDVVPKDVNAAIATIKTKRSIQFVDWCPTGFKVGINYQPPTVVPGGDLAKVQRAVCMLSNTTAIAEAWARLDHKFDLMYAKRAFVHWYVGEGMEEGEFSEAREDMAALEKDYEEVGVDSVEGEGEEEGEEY
smiles,measurement,setting,value
O=c1ccc2ccc(O)cc2o1 [7-hydroxycoumarin],inhibition of the first cleavage of S. purpuratus embryos,[1],inhibited the first cleavage
same,IC50,"[1]; S. purpuratus embryos, first cleavage",~40 µM
CC(=O)CC(c1ccccc1)c1c(O)c2ccccc2oc1=O (centres unmarked) [warfarin],inhibition of the first cleavage of S. purpuratus embryos,[1],inhibited the first cleavage
O=c1ccc2ccccc2o1 [coumarin],inhibition of the first cleavage of S. purpuratus embryos,[1],inhibited the first cleavage
O=c1oc2ccccc2c(O)c1Cc1c(O)c2ccccc2oc1=O [dicoumarol],inhibition of first cleavage versus time of addition after fertilization,[2],rapidly declined when dicoumarol was added 90 minutes after fertilization; also recorded: blocked if added after metaphase (90 minutes)
same,dose-response curve of cleavage inhibition,[3],identical to those obtained using S. purpuratus
same,dose-response curve of cleavage inhibition,[4],identical to those obtained using S. purpuratus
same,microtubule formation by electron microscopy,"[5]; 100 μM dicoumarol, polymerization prolonged to 45 minutes",microtubules were produced
same,microtubule formation by electron microscopy,"[5]; axonemal seeded microtubules, 20 μM dicoumarol",revealed actual microtubule structures
same,microtubule formation by electron microscopy,"[5]; polymerization for 10 and 20 minutes, no axonemes",No microtubules were formed
same,rate and extent of polymerization of tubulin (turbidity),"[5]; tubulin 12 μM, dicoumarol 0 μM-80 μM, FIG. 9",increased the rate and extent of tubulin polymerization; also recorded: concentration-dependent increase
same,chromosome organization,[6],disorganized chromosomes that had not congressed to the metaphase plate
same,microtubules of mitotic spindles,[6],"bipolar, but appeared to be longer and located outside an intact nuclear envelope"
same,inhibition of the first cleavage of S. purpuratus embryos,[1],inhibited the first cleavage
same,concentration at which cell division was completely blocked,[1]; S. purpuratus embryos,≥ 20 µM
same,IC50,[1],~4 µM
same,lysis or morphological changes of treated embryos,[1]; dicoumarol treated embryos,no lysis or morphological changes
